Emax, EC50 and Max efficacy data for 49 compounds are collected here from patent US20250092030A1, “ENHANCERS OF PARTICULATE GUANYLYL CYCLASE RECEPTOR A” (Mayo Foundation for Medical Education and Research, priority 2023, published 2025).

The structures appear in SMILES notation. Several values for one entry are separate records, joined by “and”; a condition that tells them apart may be missing. Equal values may be shown once. Some results are limits rather than exact numbers.

In the assay the target is T1, particulate guanylyl cyclase receptor A (pGC-A) (Homo sapiens, UniProt P16066).
T1 construct: expressed in transfected cells; host or cells: HEK293
T1 sequence (P16066 33-1061): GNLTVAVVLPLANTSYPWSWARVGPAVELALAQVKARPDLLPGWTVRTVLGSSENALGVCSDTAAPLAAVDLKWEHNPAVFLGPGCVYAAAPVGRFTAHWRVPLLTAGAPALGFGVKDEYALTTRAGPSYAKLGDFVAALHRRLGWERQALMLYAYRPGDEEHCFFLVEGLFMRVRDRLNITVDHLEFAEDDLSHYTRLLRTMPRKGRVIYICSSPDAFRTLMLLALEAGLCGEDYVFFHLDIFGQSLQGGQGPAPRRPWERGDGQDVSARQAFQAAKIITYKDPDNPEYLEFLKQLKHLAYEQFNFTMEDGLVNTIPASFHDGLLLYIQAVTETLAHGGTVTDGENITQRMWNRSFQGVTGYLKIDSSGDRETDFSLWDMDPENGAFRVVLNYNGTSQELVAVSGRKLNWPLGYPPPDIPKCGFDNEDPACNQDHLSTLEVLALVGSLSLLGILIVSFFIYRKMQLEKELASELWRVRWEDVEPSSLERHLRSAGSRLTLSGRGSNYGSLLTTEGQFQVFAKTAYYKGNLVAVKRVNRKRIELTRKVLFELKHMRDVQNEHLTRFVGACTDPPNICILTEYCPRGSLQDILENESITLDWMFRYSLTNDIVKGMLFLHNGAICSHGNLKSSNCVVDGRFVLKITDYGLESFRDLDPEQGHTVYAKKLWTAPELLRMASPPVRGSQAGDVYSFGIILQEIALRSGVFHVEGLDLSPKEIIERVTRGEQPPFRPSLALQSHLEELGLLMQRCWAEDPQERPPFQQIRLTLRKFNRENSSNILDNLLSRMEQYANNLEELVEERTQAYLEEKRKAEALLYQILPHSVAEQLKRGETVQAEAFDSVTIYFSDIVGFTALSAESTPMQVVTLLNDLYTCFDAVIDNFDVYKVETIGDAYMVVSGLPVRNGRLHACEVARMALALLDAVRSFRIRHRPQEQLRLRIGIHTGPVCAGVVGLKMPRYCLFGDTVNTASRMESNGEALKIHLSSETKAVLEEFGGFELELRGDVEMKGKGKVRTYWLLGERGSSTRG
T1 sequence (P01160 124-151 partner limits assumed): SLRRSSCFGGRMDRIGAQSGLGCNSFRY
Put plainly: cGMP production by HTRF in HEK293 cells overexpressing pGC-A, with ANP. Format: cell-based. The note with it: for Emax: HEK293, HEK293 cells overexpressing pGC-A, read-out: Max efficacy; for EC50: test compound plus EC20 concentration of ANP, cGMP by HTRF. From the text: Assay: Generally, the assay monitors the production of cGMP, the second messenger generated by pGC-A, by Time-Resolved Florescence (HTRF) in HEK293 cells overexpressing the pGC-A. pGC-A suspension cells were stimulated in the presence of the test compound and an EC20 concentration of ANP. The quantity of cGMP was detected by competitive immunoassay using Eu^3+ cryptate-labeled anti-cGMP and d2-labeled cGMP and normalized to maximal amount produced by an EC80 concentration of ANP. Compound EC50 values were determined in the primary assay, in the presence or absence of ANP, to determine mode of action as positive modulators and tested for selectivity in the same assay platform but in HEK cells overexpressing the particulate guanylyl cyclase B receptor (pGC-B), of which CNP is the endogenous ligand.
Assay details: 20 nL of 10 μM test compound in DMSO was added to columns 5-48 of 1536 well white high base screening plates (Corning, New York, NY) cells using 550 ECHO acoustic dispenser (Labcyte, San Jose, CA). Alpha-atrial natriuretic peptide (ANP) (Phoenix Pharmaceutics) was prepared as stock aliquots at 5 μM in PBS with 0.1% BSA. An approximate […] concentration of ANP ([…]) in assay buffer (HBSS containing 5 mM HEPES and 0.05% BSA) was added to columns 3-48 at a volume of 1 μL. Assay buffer only was added to column 1 and assay buffer containing a saturating concentration of ANP (5 nM) was added to column 2. HEK293 cells overexpressing GC-A were resuspended in assay media (OptimMem media containing 2% Heat-inactivated Fetal bovine serum and L-glutamine) at a density of 6×10^5 cells/mL and 2 μL were plated in screening plates (1200 cells/well) in suspension using a Bioraptr 2. Plates were spun at 1000 rpm for 1 min and incubated for 30 min at room temperature. 1.5 μL d2-labeled cGMP followed by 1.5 μL Eu^3+ cryptate-labeled anti-cGMP cGMP detection kit (CiBio; #62GM2PEC) prepared according to manufacturer's protocol were added to all wells using a Bioraptr 2 and TR-FRET signal was detected on an EnVision detector (PerkinElmer). Wells treated with 0.3% DMSO only serve as blank controls (column 1); wells treated with 0.3% DMSO and 5 nM ANP (columns 2) serve as positive controls and wells treated with 0.3% DMSO and […] ANP (columns 3-4) serve as negative controls.

The mark [1] stands for this setting: cGMP normalized to maximal amount produced by an EC80 concentration of ANP.
Setting [2] is: HEK293 cells overexpressing pGC-A.

Regarding `O=C(Nc1nc2c(Cl)cc(F)cc2s1)C1CCCN(C2CNC2)C1` (centres unmarked) [compound 136], under setting [1], the Emax came to 46%. For the same compound, the EC50 under setting [2] was 0.3 µM.
With `CCC(C)N1CC(N2CCCC(C(=O)Nc3nc4c(Cl)cc(F)cc4s3)C2)C1` (centres unmarked) [compound 137], the Emax under setting [1] is 80%. The EC50 under setting [2] is 0.08 µM.
For the compound `CC(=O)N1CC(N2CCCC(C(=O)Nc3nc4c(Cl)cc(F)cc4s3)C2)C1` (centres unmarked) [compound 138], the Emax under setting [1] turned out to be 46%. The 50% effective concentration (EC50) under setting [2] came out at 1.1 µM.
As for `COC(=O)CN1CC(N2CCCC(C(=O)Nc3nc4c(Cl)cc(F)cc4s3)C2)C1` (centres unmarked) [compound 139], the Emax under setting [1] came to 79%. Under setting [2], the EC50 was determined as 0.2 µM.
As for `CN(C)CCN1CCCC(C(=O)Nc2nc(-c3ccccc3)cs2)C1` (centres unmarked) [compound 144], under setting [2], the EC50 was more than 5 µM.
For `CN(C)CCN1CCCC(C(=O)Nc2nc(-c3ccccc3F)cs2)C1` (centres unmarked) [compound 145], the EC50 under setting [2] is more than 5 µM.
Consider `CN(C)CCN1CCCC(C(=O)Nc2nc(-c3cccc(F)c3)cs2)C1` (centres unmarked) [compound 146], for which the EC50 under setting [2] was more than 5 µM.
With `CN(C)CCN1CCCC(C(=O)Nc2nc(-c3ccc(F)cc3)cs2)C1` (centres unmarked) [compound 147], the EC50 under setting [2] was more than 5 µM.
Consider `CN(C)CCN1CCCC(C(=O)Nc2nc(-c3ccccc3Cl)cs2)C1` (centres unmarked) [compound 148], for which, under setting [2], the EC50 is more than 5 µM.
Still for that read-out and setting: under `CN(C)CCN1CCCC(C(=O)Nc2nc(-c3cccc(Cl)c3)cs2)C1` (centres unmarked) [compound 149] stands more than 5 µM; under `CN(C)CCN1CCCC(C(=O)Nc2nc(-c3ccc(Cl)cc3)cs2)C1` (centres unmarked) [compound 150], more than 5 µM; under `Cc1ccccc1-c1csc(NC(=O)C2CCCN(CCN(C)C)C2)n1` (centres unmarked) [compound 151], more than 5 µM.
Still for that read-out and setting: under `Cc1cccc(-c2csc(NC(=O)C3CCCN(CCN(C)C)C3)n2)c1` (centres unmarked) [compound 152] stands more than 5 µM; under `Cc1ccc(-c2csc(NC(=O)C3CCCN(CCN(C)C)C3)n2)cc1` (centres unmarked) [compound 153], more than 5 µM.
Take `COc1ccccc1-c1csc(NC(=O)C2CCCN(CCN(C)C)C2)n1` (centres unmarked) [compound 154]: the concentration for a half-maximal effect (EC50) under setting [2] was more than 5 µM.
With `COc1cccc(-c2csc(NC(=O)C3CCCN(CCN(C)C)C3)n2)c1` (centres unmarked) [compound 155], the EC50 under setting [2] was more than 5 µM.
`COc1ccc(-c2csc(NC(=O)C3CCCN(CCN(C)C)C3)n2)cc1` (centres unmarked) [compound 156]: the EC50 under setting [2] was more than 5 µM.
`COCCOc1ccc(-c2csc(NC(=O)C3CCCN(CCN(C)C)C3)n2)cc1` (centres unmarked) [compound 160]: under setting [2], the EC50 was more than 5 µM.
In the case of `CN(C)CCN1CCCC(C(=O)Nc2ncc(-c3ccccc3)s2)C1` (centres unmarked) [compound 169], the EC50 under setting [2] was more than 5 µM.
`CN(C)CCN1CCCC(C(=O)Nc2nc3c(F)cc(F)cc3c(=O)[nH]2)C1` (centres unmarked) [compound 182]: under setting [2], the EC50 is more than 5 µM.
Take `O=C(Nc1nc2c(F)cc(F)cc2c(=O)[nH]1)C1CCCNC1` (centres unmarked) [compound 183]: the EC50 under setting [2] was more than 5 µM.
Consider `CN(C)CCN1CCCC(C(=O)Nc2ccc3cccc(F)c3n2)C1` (centres unmarked) [compound 191], for which the EC50 under setting [2] was more than 5 µM.
For `O=C(Nc1nc2c(F)cc(F)cc2s1)c1ccccc1` [compound 199], the EC50 under setting [2] was more than 10 µM.
As for `O=C(Nc1nc2c(F)cc(F)cc2s1)c1ccccc1Cl` [compound 200], the EC50 under setting [2] is more than 10 µM.
With `O=C(Nc1nc2c(F)cc(F)cc2s1)c1cccc(Cl)c1` [compound 201], the EC50 under setting [2] was more than 10 µM.
Regarding `O=C(Nc1nc2c(F)cc(F)cc2s1)c1ccc(Cl)cc1` [compound 202], the EC50 under setting [2] is more than 10 µM.
Regarding `COc1ccccc1C(=O)Nc1nc2c(F)cc(F)cc2s1` [compound 203], the EC50 under setting [2] was more than 10 µM.
Regarding `COc1cccc(C(=O)Nc2nc3c(F)cc(F)cc3s2)c1` [compound 204], the EC50 under setting [2] is more than 10 µM.
On the same count and under the same terms, under `COc1ccc(C(=O)Nc2nc3c(F)cc(F)cc3s2)cc1` [compound 205] stands more than 10 µM; under `O=C(Nc1nc2c(F)cc(F)cc2s1)c1ccc(-c2ccccc2)cc1` [compound 206], more than 10 µM.
On to `CN(C)CCN[C@@H]1CCC[C@H](C(=O)Nc2nc3c(F)cc(F)cc3s2)C1` [compound 207], for which, under setting [2], the EC50 was more than 5 µM.
For `N[C@@H]1CCCC(C(=O)Nc2nc3c(F)cc(F)cc3s2)C1` (some centres unmarked) [compound 208], the Emax under setting [1] is 87%.
Regarding `N[C@@H]1CCC[C@H](C(=O)Nc2nc3c(F)cc(F)cc3s2)C1` [compound 208], the EC50 under setting [2] was determined as 0.7 µM.
On to `CN(C)CCN[C@H]1CCC[C@H](C(=O)Nc2nc3c(F)cc(F)cc3s2)C1` [compound 209], for which the EC50 under setting [2] is more than 5 µM.
Take `CN(C)CCN[C@@H]1CCCCC1C(=O)Nc1nc2c(F)cc(F)cc2s1` (some centres unmarked) [compound 211]: the Emax under setting [1] amounted to 101%.
Turning to `CN(C)CCN[C@@H]1CCCC[C@@H]1C(=O)Nc1nc2c(F)cc(F)cc2s1` [compound 211], under setting [2], the EC50 came to 1.53 µM.
For `CN(C)CCC1CCCC(C(=O)Nc2nc3c(Cl)cc(F)cc3s2)C1` (centres unmarked) [compound 215], the Emax under setting [1] is 78%. Besides, the EC50 under setting [2] is 0.9 µM.
For `CN(C)CCN1CCCC(C(=O)Nc2nc3ccccc3s2)C1` (centres unmarked) [compound 216], the EC50 under setting [2] was more than 10 µM.
Take `CN(C)CCN1CCCC(NC(=O)c2nc3c(F)cc(F)cc3s2)C1` (centres unmarked) [compound 217]: under setting [2], the EC50 was more than 10 µM.
Regarding `CN(C)C1CCN(CC(=O)Nc2nc3c(F)cc(F)cc3s2)CC1` [compound 219], the Emax under setting [1] is 91%. For the same compound, the EC50 under setting [2] was determined as 1.5 µM.
With `CN(C)CCC1CCN(c2nc3c(F)cc(F)cc3s2)C(=O)C1` (centres unmarked) [compound 220], the 50% effective concentration (EC50) under setting [2] was more than 5 µM.
Take `O=C1CCC(C(=O)Nc2nc3c(F)cc(F)cc3s2)CN1` (centres unmarked) [compound 222]: the Emax under setting [1] was 58%. In addition, under setting [2], the concentration for a half-maximal effect (EC50) turned out to be 1.01 µM.
For `CN(C)CCN1CCCC(C(=O)Nc2nc3c(F)cccc3s2)C1` (centres unmarked) [compound 224], under setting [1], the Emax turned out to be 105%. Besides, the EC50 under setting [2] came to 5.8 µM.
The corresponding values for `CN(C)CCN1CCCC(C(=O)Nc2nc3c(Cl)cccc3s2)C1` (centres unmarked) [compound 225] are 97% and 0.36 µM.
In the case of `CN(C)CCN1CCCC(C(=O)Nc2nc3c(Br)cccc3s2)C1` (centres unmarked) [compound 226], where the note is “HEK293 cells overexpressing pGC-A, cGMP normalized to maximal amount produced by an EC80 concentration of ANP”, the Max efficacy was 62% and 87%. Under setting [2], the EC50 was 0.16 µM and 0.9 µM.
Consider `CN(C)CCN1CCC(C(=O)Nc2nc3c(F)cc(F)cc3s2)CC1` [compound 227], for which the Emax under setting [1] was determined as 93%. Also, under setting [2], the EC50 was found to be 1.5 µM.
For the compound `CN(C)CCN1CCCC(C)(C(=O)Nc2nc3c(F)cc(F)cc3s2)C1` (centres unmarked) [compound 228], the EC50 under setting [2] was more than 5 µM.
On to `CN(C)C(=O)CN1CCCC(C(=O)Nc2nc3c(F)cc(F)cc3s2)C1` (centres unmarked) [compound 229], for which the Emax under setting [1] was determined as 91%. Besides, the EC50 under setting [2] was found to be 1.9 µM.
On to `CN(C)CC(=O)N1CCCC(C(=O)Nc2nc3c(F)cc(F)cc3s2)C1` (centres unmarked) [compound 230], for which the Emax under setting [1] turned out to be 105%. Besides, the EC50 under setting [2] came out at 0.7 µM.

One may read the EC50 as the concentration needed to bring the measured effect to its halfway point.
